According to patent US4743611A, “Naphthalenylsulfonylimidazolidinediones and their thioxo analogs useful as aldose reductase inhibitors” (American Home Products Corp., priority 1987, dated 1988):
Where two headings read alike, the source gives them in different places.

What was measured:
aldose reductase [1] = target: T1, aldose reductase (Rattus norvegicus, UniProt P07943); assay: lowering of dulcitol accumulation in vivo in lens, sciatic nerve and diaphragm of galactosemic rats; set-up: species or system rat (Sprague-Dawley); settings: for ED50: rat, po, 96 h
T1 construct: diminish the accumulation of dulcitol in the lenses, sciatic nerves and diaphragm of rats fed galactose; from tissue; host or cells: lens, sciatic nerve and diaphragm of living male Sprague-Dawley rats
Source text: Such experiments are exemplified hereinbelow after the listing of the following general comments pertaining to these experiments:
(a) Four or more groups of six male rats, 50-70 g, Sprague-Dawley strain, were used. The first group, the control group, was fed a mixture of laboratory chow (rodent Laboratory Chow, Purina) and glucose at 20% (w/w %) concentration. The untreated galactosemic group was fed a similar diet in which galactose is substituted for glucose. The third group was fed a diet prepared by mixing a given amount of the test compound with the galactose containing diet. The concentration of galactose in the diet of the treated groups was the same as that for the untreated galactosemic group.
(b) After four days, the animals were killed by decapitation. The eyeballs were removed and punctured with a razor blade; the freed lenses were rolled gently on filter paper and weighed. The sciatic nerves were dissected as completely as possible and weighed. Both tissues when frozen can be kept up to two weeks before being analyzed for dulcitol.
Only two minor reagent changes were made: (a) The rinsing mixture was an aqueous 5% (w/v) trichloroacetic acid solution and (b) the stock solution was prepared by dissolving 25 mg of dulcitol in 100 ml of an aqueous trichloroacetic acid solution. [N.B.: For each experiment the average value found in the tissue from rats fed the glucose diet was subtracted from the individual values found in the corresponding tissue in galactose-fed rats to obtain the amount of polyol accumulated.]
The figures under L, N and D represent the percentage decrease of dulcitol accumulation in the tissues of the lens, sciatic nerve and diaphragm, respectively, for treated rats as compared to untreated rats.

aldose reductase [2] = target: T2, aldose reductase (Bos taurus, UniProt P16116); assay: in vitro inhibition of aldose reductase (enzyme from bovine lens, modified Hayman and Kinoshita procedure); format: biochemical; settings: read-out: % inhibition in vitro; for inhibition at 1 µM: 10^-6
T2 construct: preparation of the enzyme from bovine lens; from tissue; host or cells: bovine lens
Source text: In the present case the procedure of Hayman and Kinoshita was modified in that the final chromatography step was omitted in the preparation of the enzyme from bovine lens.

[3] = diaphragm, 24 mg/kg/day in diet
[4] = diaphragm, read-out: ED50, lowering dulcitol accumulation in vivo, D
[5] = sciatic nerve, read-out: ED50, lowering dulcitol accumulation in vivo, N
[6] = diaphragm, 23 mg/kg/day in diet

O=C1CN(S(=O)(=O)c2cccc3c(Br)cccc23)C(=S)N1 [Example 1, 1-[(5-Bromo-1-naphthalenyl)sulfonyl]-2-thioxo-4-imidazolidinone]
% lowering dulcitol accumulation in vivo, D (aldose reductase [1]; [3]): 61% | % lowering dulcitol accumulation in vivo, D (aldose reductase [1]; diaphragm, 48 mg/kg/day in diet, p < 0.01): 64% | % lowering dulcitol accumulation in vivo, D (aldose reductase [1]; diaphragm, 109 mg/kg/day in diet): 86% | % lowering dulcitol accumulation in vivo, L (aldose reductase [1]; lens, 24 mg/kg/day in diet): 24% | % lowering dulcitol accumulation in vivo, L (aldose reductase [1]; lens, 48 mg/kg/day in diet, p < 0.01): 40% | % lowering dulcitol accumulation in vivo, L (aldose reductase [1]; lens, 109 mg/kg/day in diet): 49% | ED50 (aldose reductase [1]; [4]): 18 mg/kg | ED50 (aldose reductase [1]; lens, read-out: ED50, lowering dulcitol accumulation in vivo, L): 99 mg/kg | ED50 (aldose reductase [1]; [5]): 22 mg/kg | inhibition at 10 µM (aldose reductase [2]; 10^-5): 67% | inhibition at 1 µM (aldose reductase [2]): 17%

O=C1CN(S(=O)(=O)c2cccc3c(Br)cccc23)C(=O)N1 [Example 2, 1-[(5-Bromo-1-naphthalenyl)sulfonyl]-2,4-imidazolidinedione]
results compared with tolrestat (in words) (aldose reductase [1]; 4.8 and 10.2 mg/kg/day versus tolrestat 4 and 11 mg/kg/day): comparable results | % lowering dulcitol accumulation in vivo, D (aldose reductase [1]; diaphragm, 4.8 mg/kg/day in diet): 58% | % lowering dulcitol accumulation in vivo, D (aldose reductase [1]; diaphragm, 10.2 mg/kg/day in diet): 72% | % lowering dulcitol accumulation in vivo, D (aldose reductase [1]; diaphragm, 20.7 mg/kg/day in diet): 75% | % lowering dulcitol accumulation in vivo, D (aldose reductase [1]; [6]): 81% | % lowering dulcitol accumulation in vivo, D (aldose reductase [1]; diaphragm, 101 mg/kg/day in diet): 87% | % lowering dulcitol accumulation in vivo, L (aldose reductase [1]; lens, 10.2 mg/kg/day in diet): 18% | % lowering dulcitol accumulation in vivo, L (aldose reductase [1]; lens, 20.7 mg/kg/day in diet): 36% | % lowering dulcitol accumulation in vivo, L (aldose reductase [1]; lens, 23 mg/kg/day in diet): 44% | % lowering dulcitol accumulation in vivo, L (aldose reductase [1]; lens, 101 mg/kg/day in diet): 79% | ED50 (aldose reductase [1]; [4]): 2 mg/kg | ED50 (aldose reductase [1]; [5]): 8.1 mg/kg | inhibition at 10 µM (aldose reductase [2]; 10^-5): 93% | inhibition at 1 µM (aldose reductase [2]): 89% | inhibition at 0.1 µM (aldose reductase [2]; 10^-7): 45%

O=C1CN(S(=O)(=O)c2ccc(Br)c3ccccc23)C(=S)N1 [Example 3, 1-[(4-bromo-1-naphthalenyl)sulfonyl]-2-thioxo-4-imidazolidinone]
inhibition at 10 µM (aldose reductase [2]; 10^-5): 53% | inhibition at 1 µM (aldose reductase [2]): 15%

O=C1CN(S(=O)(=O)c2ccc(Br)c3ccccc23)C(=O)N1 [Example 4, 1-[(4-bromo-1-naphthalenyl)sulfonyl]-2,4-imidazolidinedione]
% lowering dulcitol accumulation in vivo, D (aldose reductase [1]; [3]): 27% | inhibition at 10 µM (aldose reductase [2]; 10^-5): 92% | inhibition at 1 µM (aldose reductase [2]): 81% | inhibition at 0.1 µM (aldose reductase [2]; 10^-7): 31%

COc1ccc2c(S(=O)(=O)N3CC(=O)NC3=S)cccc2c1C(F)(F)F [Example 5, 1-[[6-methoxy-5-(trifluoromethyl)-1-naphthalenyl]sulfonyl]-2-thioxo-4-imidazolidinone]
inhibition at 1 µM (aldose reductase [2]): 15% | inhibition at 10 µM (aldose reductase [2]): 40%

COc1ccc2c(S(=O)(=O)N3CC(=O)NC3=O)cccc2c1C(F)(F)F [Example 6, 1-[[6-Methoxy-5-(trifluoromethyl)-1-naphthalenyl]sulfonyl]-2,4-imidazolidinedione]
% lowering dulcitol accumulation in vivo, D (aldose reductase [1]; diaphragm, 86 mg/kg/day in diet, p < 0.01): 87% | % lowering dulcitol accumulation in vivo, L (aldose reductase [1]; lens, 86 mg/kg/day in diet, p < 0.01): 60% | inhibition at 1 µM (aldose reductase [2]): 84% | inhibition at 0.1 µM (aldose reductase [2]; 10^-7): 43% | inhibition at 10 µM (aldose reductase [2]): 86%

CN(C)c1cccc2c(S(=O)(=O)N3CC(=O)NC3=S)cccc12 [Example 7, 1-[[5-(dimethylamino)-1-naphthalenyl]sulfonyl]-2-thioxo-4-imidazolidinone]
inhibition at 10 µM (aldose reductase [2]; 10^-5): 58% | inhibition at 1 µM (aldose reductase [2]): 12%

CN(C)c1cccc2c(S(=O)(=O)N3CC(=O)NC3=O)cccc12 [Example 8, 1-[[5-(Dimethylamino)-1-naphthalenyl]sulfonyl]-2,4-imidazolidinedione]
inhibition at 1 µM (aldose reductase [2]): 83% | inhibition at 0.1 µM (aldose reductase [2]): 38% | inhibition at 10 µM (aldose reductase [2]): 96%

O=C1CN(S(=O)(=O)c2cccc3ccccc23)C(=S)N1 [Example 9, 1-[(1-Naphthalenyl)sulfonyl]-2-thioxo-4-imidazolidinone]
inhibition at 10 µM (aldose reductase [2]; 10^-5): 17%

O=C1CN(S(=O)(=O)c2cccc3ccccc23)C(=O)N1 [Example 10, 1-[(1-Naphthalenyl)sulfonyl]-2,4-imidazolidinedione]
% lowering dulcitol accumulation in vivo, D (aldose reductase [1]; [6]): 31% | % lowering dulcitol accumulation in vivo, L (aldose reductase [1]; lens, 23 mg/kg/day in diet): 10% | inhibition at 10 µM (aldose reductase [2]; 10^-5): 89% | inhibition at 1 µM (aldose reductase [2]): 59% | inhibition at 0.1 µM (aldose reductase [2]; 10^-7): 14%
